Reference: patent US20230200390A1, “SELECTIVE HERBICIDES BASED ON SUBSTITUTED ISOXAZOLIN CARBOXAMIDES AND MEFENPYR-DIETHYL” (BAYER AKTIENGESELLSCHAFT, priority 2020, published 2023)

How the values were obtained:
Format in all cases: in vivo
[1] = tested on: spring barley, HORVS Montoya; assay: Tank-mix; post-emergence: crop damage by herbicide with/without safener mefenpyr-diethyl
Procedure: (§1) Seeds of crops (spring wheat, TRZAS; spring barley, HORVS; maize, ZEAMA) were placed in sandy loam soil in peat pots, covered with soil and cultivated in a greenhouse under good growth conditions. Two to three weeks after sowing, the test plants were treated at the 1 to 3-leaf stage. The herbicide/safener active compound combinations according to the invention, formulated as wettable powders or emulsion concentrates, and, in parallel tests, the correspondingly formulated individual active compounds were sprayed onto the green parts of the plants in various dosages using an amount of water of 300 l/ha (converted).
(§2) The pots were returned under good growing conditions in a glasshouse and a visual assessment of herbicidal effects was made at intervals from 1 to 3 weeks after herbicide application (DAT=days after treatment). Assessment was on a percentage basis in comparison with untreated control plants (0%=no injury, 100%=complete kill).

[2] = tested on: spring wheat, TRZAS Triso; assay: as above
Procedure: as §1, §2

[3] = tested on: spring wheat, TRZAS Triso; assay: Seed treatment with safener; post-emergence herbicide, crop damage; settings: for HER effect + SAF [%] (crop damage) / Reduction [%] / Reduction [Difference]: mefenpyr-diethyl 0.5 g a.i./kg seed; for HER effect [%] (crop damage, herbicide without safener): no safener
Excerpt: (§3) For safener seed treatment trials, sufficient seed amounts of the respective crops (spring wheat (TRZAS); spring barley (HORVS)) were weighed into screw cap glass bottles with a minimum volume trice of the seeds.
(§4) As a first step, specified safeners formulated as wettable powder (WP) or wettable granules (WG) were weighed out for the required dosages (g a.i./kg seed), corresponding to the seed amounts. The safener amounts were mixed with a coloured slurry blind formulation type, prediluted with milk at 3.5% fat rate (25 mgs slurry formulation plus 2 ml milk per 10 grams of seed). A tube roller was used for coating. The solutions were gradually pipetted each on the rotating seeds followed by coating for min. 3 hours until all liquid had been soaked up by the seeds. Thereafter, the coated seeds were put flat on open trays for drying over night at room temperature.
(§5) Treated seeds were then placed into pots (7 cm diameter) on the surface of sandy loam, pressed down, flat covered with additional soil and finally covered with sandy soil, also pressed down, watered, and kept under good growth conditions in a greenhouse, until the plants had reached 2-leaf-stage (BBCH 12).
(§6) At that stage, post-emergence application of the specified herbicides was done on:
(§7) a) pot sets containing plants with safener-coated seeds as described above,
(§8) b) as a reference, pot sets of plants without seed treatment.
(§9) The herbicides were formulated as wettable powder (WP). Equivalent to the spray area, compound amounts were weighed out and diluted related to the water application rate (300 l/ha) to an aqueous suspension plus additive (1 l/ha MERO). Dosage related equivalents were conventionally sprayed on trays with the potted plants.
(§10) After application, the test plants were kept under good growth conditions in a greenhouse.
(§11) Assessment timings were 10 and 21 days after treatment (DAT) with the herbicide, by visual scoring of the crop damage in % (comparison of untreated with treated plants, either sprayed only with herbicide or with herbicide on plants with treated seeds).

[4] = tested on: spring barley, HORVS Montoya; assay: as above; settings: for HER effect + SAF / Reduction [%] / Reduction [Difference]: mefenpyr-diethyl 0.5 g a.i./kg seed
Excerpt: as §3, §4, §5, §6, §7, §8, §9, §10, §11

[5] = HER 2 g a.i./ha + mefenpyr-diethyl 100 g a.i./ha, 21 DAT
[6] = herbicide alone 2 g a.i./ha, 21 DAT
[7] = HER 2 g a.i./ha + mefenpyr-diethyl 50 g a.i./ha, 21 DAT
[8] = HER 8 g a.i./ha post-emergence, 21 DAT
[9] = HER 32 g a.i./ha post-emergence, 21 DAT
[10] = herbicide alone 8 g a.i./ha post-emergence, 21 DAT
[11] = herbicide alone 32 g a.i./ha post-emergence, 21 DAT
[12] = HER 8 g a.i./ha + mefenpyr-diethyl 50 g a.i./ha, 10 DAT
[13] = HER 32 g a.i./ha + mefenpyr-diethyl 100 g a.i./ha, 10 DAT
[14] = herbicide alone 8 g a.i./ha, 10 DAT
[15] = herbicide alone 32 g a.i./ha, 10 DAT
[16] = HER 32 g a.i./ha post-emergence, 10 DAT
[17] = herbicide alone 32 g a.i./ha post-emergence, 10 DAT
[18] = HER 8 g a.i./ha + mefenpyr-diethyl 100 g a.i./ha, 21 DAT
[19] = herbicide alone 8 g a.i./ha, 21 DAT
[20] = HER 8 g a.i./ha + mefenpyr-diethyl 50 g a.i./ha, 21 DAT
[21] = HER 2 g a.i./ha + mefenpyr-diethyl 50 g a.i./ha, 10 DAT
[22] = HER 2 g a.i./ha post-emergence, 21 DAT

SMILES: C=CC1(C(=O)NC2C=CC(C(=O)OC)C2)CC(c2cc(F)cc(F)c2)=NO1 (stereo not drawn) [Example 1.26]
- HER effect + SAF [1, 5]: 0%
- Reduction [%] [1, 5]: 100%
- Reduction [Difference] [1, 5]: 60
- HER effect [1, 6]: 60%
- HER effect + SAF [2, 7]: 50%
- Reduction [%] [2, 7]: 44%
- Reduction [Difference] [2, 7]: 40
- HER effect [2, 6]: 90%
- HER effect + SAF [%] (crop damage) ([3]; 21 DAT, HER dose 2 g a.i./ha): 30%
- Reduction [%] ([3]; 21 DAT, HER dose 2 g a.i./ha): 67%
- Reduction [Difference] ([3]; 21 DAT, HER dose 2 g a.i./ha): 60
- HER effect [%] (crop damage, herbicide without safener) ([3]; 21 DAT, HER dose 2 g a.i./ha): 90%
- HER effect + SAF [%] (crop damage) ([3]; 21 DAT, HER dose 8 g a.i./ha): 70%
- Reduction [%] ([3]; 21 DAT, HER dose 8 g a.i./ha): 25%
- Reduction [Difference] ([3]; 21 DAT, HER dose 8 g a.i./ha): 23
- HER effect [%] (crop damage, herbicide without safener) ([3]; 21 DAT, HER dose 8 g a.i./ha): 93%

SMILES: COC(=O)C1C=CC(NC(=O)C2(C)CC(c3cc(Cl)cc(C#N)c3)=NO2)C1 (mixture of isomers) [Example 1.23]
- HER effect + SAF [4, 8]: 0%
- Reduction [%] [4, 8]: 100%
- Reduction [Difference] [4, 8]: 20
- HER effect + SAF [4, 9]: 10%
- Reduction [%] [4, 9]: 67%
- Reduction [Difference] [4, 9]: 20
- HER effect [4, 10]: 20%
- HER effect [4, 11]: 30%
- HER effect + SAF [%] (crop damage) ([3]; 21 DAT, HER dose 8 g a.i./ha): 0%
- Reduction [%] ([3]; 21 DAT, HER dose 8 g a.i./ha): 100%
- Reduction [Difference] ([3]; 21 DAT, HER dose 8 g a.i./ha): 20
- HER effect [%] (crop damage, herbicide without safener) ([3]; 21 DAT, HER dose 8 g a.i./ha): 20%

SMILES: C=CCOC(=O)C1CC(NC(=O)C2(C=C)CC(c3cc(C)cc(F)c3)=NO2)CO1 (mixture of isomers) [Example 1.85]
- HER effect + SAF [1, 12]: 0%
- Reduction [%] [1, 12]: 100%
- Reduction [Difference] [1, 12]: 20
- HER effect + SAF [1, 13]: 20%
- Reduction [%] [1, 13]: 75%
- Reduction [Difference] [1, 13]: 60
- HER effect [1, 14]: 20%
- HER effect [1, 15]: 80%
- HER effect + SAF [4, 16]: 30%
- Reduction [%] [4, 16]: 63%
- Reduction [Difference] [4, 16]: 50
- HER effect [4, 17]: 80%

SMILES: C=CC1(C(=O)NC2CC=C(C(=O)OC)C2)CC(c2cc(F)cc(F)c2)=NO1 (mixture of isomers) [Example 1.60]
- HER effect + SAF [1, 18]: 20%
- Reduction [%] [1, 18]: 75%
- Reduction [Difference] [1, 18]: 60
- HER effect [1, 19]: 80%
- HER effect + SAF [4, 8]: 10%
- Reduction [%] [4, 8]: 88%
- Reduction [Difference] [4, 8]: 70
- HER effect [4, 10]: 80%
- HER effect + SAF [%] (crop damage) ([3]; 21 DAT, HER dose 8 g a.i./ha): 0%
- Reduction [%] ([3]; 21 DAT, HER dose 8 g a.i./ha): 100%
- Reduction [Difference] ([3]; 21 DAT, HER dose 8 g a.i./ha): 93
- HER effect [%] (crop damage, herbicide without safener) ([3]; 21 DAT, HER dose 8 g a.i./ha): 93%
- HER effect + SAF [%] (crop damage) ([3]; 21 DAT, HER dose 32 g a.i./ha): 10%
- Reduction [%] ([3]; 21 DAT, HER dose 32 g a.i./ha): 89%
- Reduction [Difference] ([3]; 21 DAT, HER dose 32 g a.i./ha): 85
- HER effect [%] (crop damage, herbicide without safener) ([3]; 21 DAT, HER dose 32 g a.i./ha): 95%

SMILES: C=CC1(C(=O)NC2C=CC(C(=O)O)C2)CC(c2cc(F)cc(F)c2)=NO1 (stereo not drawn) [Example 1.58]
- HER effect + SAF [2, 7]: 10%
- Reduction [%] [2, 7]: 88%
- Reduction [Difference] [2, 7]: 75
- HER effect + SAF [2, 20]: 40%
- Reduction [%] [2, 20]: 57%
- Reduction [Difference] [2, 20]: 53
- HER effect [2, 6]: 85%
- HER effect [2, 19]: 93%
- HER effect + SAF [4, 8]: 0%
- Reduction [%] [4, 8]: 100%
- Reduction [Difference] [4, 8]: 95
- HER effect + SAF [4, 9]: 40%
- Reduction [%] [4, 9]: 58%
- Reduction [Difference] [4, 9]: 55
- HER effect [4, 10]: 95%
- HER effect [4, 11]: 95%
- HER effect + SAF [%] (crop damage) ([3]; 21 DAT, HER dose 2 g a.i./ha): 0%
- Reduction [%] ([3]; 21 DAT, HER dose 2 g a.i./ha): 100%
- Reduction [Difference] ([3]; 21 DAT, HER dose 2 g a.i./ha): 85
- HER effect [%] (crop damage, herbicide without safener) ([3]; 21 DAT, HER dose 2 g a.i./ha): 85%
- HER effect + SAF [%] (crop damage) ([3]; 21 DAT, HER dose 8 g a.i./ha): 0%
- Reduction [%] ([3]; 21 DAT, HER dose 8 g a.i./ha): 100%
- Reduction [Difference] ([3]; 21 DAT, HER dose 8 g a.i./ha): 93
- HER effect [%] (crop damage, herbicide without safener) ([3]; 21 DAT, HER dose 8 g a.i./ha): 93%
- HER effect + SAF [%] (crop damage) ([3]; 21 DAT, HER dose 32 g a.i./ha): 10%
- Reduction [%] ([3]; 21 DAT, HER dose 32 g a.i./ha): 89%
- Reduction [Difference] ([3]; 21 DAT, HER dose 32 g a.i./ha): 83
- HER effect [%] (crop damage, herbicide without safener) ([3]; 21 DAT, HER dose 32 g a.i./ha): 93%

SMILES: COC(=O)C1C=CC(NC(=O)C2(C(F)(F)F)CC(c3cccc(F)c3)=NO2)C1 (stereo not drawn) [Example 1.18]
- HER effect + SAF [1, 12]: 0%
- Reduction [%] [1, 12]: 100%
- Reduction [Difference] [1, 12]: 20
- HER effect + SAF [1, 13]: 10%
- Reduction [%] [1, 13]: 88%
- Reduction [Difference] [1, 13]: 70
- HER effect [1, 14]: 20%
- HER effect [1, 15]: 80%
- HER effect + SAF [4, 16]: 20%
- Reduction [%] [4, 16]: 75%
- Reduction [Difference] [4, 16]: 60
- HER effect [4, 17]: 80%

SMILES: CSCCOC(=O)C1C=CC(NC(=O)C2(C(F)(F)F)CC(c3cc(F)cc(F)c3)=NO2)C1 (stereo not drawn) [Example 1.7]
- HER effect + SAF [2, 21]: 0%
- Reduction [%] [2, 21]: 100%
- Reduction [Difference] [2, 21]: 50
- HER effect + SAF [2, 12]: 70%
- Reduction [%] [2, 12]: 25%
- Reduction [Difference] [2, 12]: 23
- HER effect ([2]; herbicide alone 2 g a.i./ha, 10 DAT): 50%
- HER effect [2, 14]: 93%
- HER effect + SAF [4, 22]: 40%
- Reduction [%] [4, 22]: 43%
- Reduction [Difference] [4, 22]: 30
- HER effect + SAF [4, 9]: 50%
- Reduction [%] [4, 9]: 47%
- Reduction [Difference] [4, 9]: 45
- HER effect ([4]; herbicide alone 2 g a.i./ha post-emergence, 21 DAT): 70%
- HER effect [4, 11]: 95%
- HER effect + SAF [%] (crop damage) ([3]; 10 DAT, HER dose 2 g a.i./ha): 0%
- Reduction [%] ([3]; 10 DAT, HER dose 2 g a.i./ha): 100%
- Reduction [Difference] ([3]; 10 DAT, HER dose 2 g a.i./ha): 50
- HER effect [%] (crop damage, herbicide without safener) ([3]; 10 DAT, HER dose 2 g a.i./ha): 50%
- HER effect + SAF [%] (crop damage) ([3]; 10 DAT, HER dose 8 g a.i./ha): 40%
- Reduction [%] ([3]; 10 DAT, HER dose 8 g a.i./ha): 57%
- Reduction [Difference] ([3]; 10 DAT, HER dose 8 g a.i./ha): 53
- HER effect [%] (crop damage, herbicide without safener) ([3]; 10 DAT, HER dose 8 g a.i./ha): 93%
